How the values were obtained:
PD-1/PD-L1 = PD-1/PD-L1 (Homo sapiens (Human), UniProt Q9NZQ7); test: PD-1/PD-L1 Homogeneous Time-Resolved Fluorescence (HTRF) binding assay; conditions: 3 nM PD1, 10 nM PD-L1, 25° C., PBS pH 7.4
Procedure, shortened: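 HTRF with His-tagged human PD-L1 (19-238, 10 nM) and Fc-tagged human PD-1 (25-167, 3 nM) preincubated with inhibitors 40 min in PBS pH 7.4, 0.05% Tween-20, 0.1% BSA, 1% DMSO, 25° C. Eu anti-human IgG and anti-His-APC added, 60 min; 665/620 nm ratio; IC50 from percent control activity fit.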

PD-L1/CHO-K1 cells = PD-L1/CHO-K1 cells (Homo sapiens (Human), UniProt Q9NZQ7); test: PD-L1 internalization (FACS, PD-L1/CHO-K1 cells); type: cell-based; conditions: % activation of PD-L1 internalization = 1 − PD-L1 signal; 17 hours incubation
PD-L1/CHO-K1 cells, sequence (Q9NZQ7 19-290): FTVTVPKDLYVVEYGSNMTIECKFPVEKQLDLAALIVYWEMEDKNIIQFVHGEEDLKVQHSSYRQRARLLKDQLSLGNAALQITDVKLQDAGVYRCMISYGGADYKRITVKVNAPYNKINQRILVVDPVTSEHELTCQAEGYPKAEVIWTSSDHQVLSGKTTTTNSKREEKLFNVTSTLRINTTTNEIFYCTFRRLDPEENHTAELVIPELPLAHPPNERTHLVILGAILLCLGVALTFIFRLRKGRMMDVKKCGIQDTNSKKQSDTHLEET
Protocol: Day 1. Seeding cells: Digest the PD-L1/CHO-K1 cells by trypsin in the flask, then counting the cell number and diluted to 1×10^5 cells/ml. Seeding cells to 6 well plate (Corning, #3516), 2 mL/well. The plates were incubated at 37° C., […] incubator for 24 hours.
Day 2. Preparing compounds and treated cells: Dilute GLC01-258 from 15 mM to 0.5 mM by using DMSO, and 15 mM compound were serial diluted from 15 mM˜15 nM by DMSO, Then 500 times dilute the compounds by using assay buffer. Prepare 0.2% DMSO in assay buffer used for Vehicle control and low control. Take out the plates, aspirated the medium and thrown away. Adding 2 mL of the diluted compounds, vehicle control and low control to corresponding wells. Then incubated the plates for 17 hours at 37° C., 5% CO2 incubator.
Day 3. Preparing samples for FACS: After 17 hours incubation, discarded medium and washed by the PBS. Cells in each well were Digested by trypsin. Centrifuge and discard the supernatant, then wash the cells by DPBS (Ca^2+, Mg^2+ free) for twice. 10 fold dilute the antibody (PE-conjugated mouse anti-human CD274) by DPBS, then adding the staining solution to compounds treated samples and vehicle control sample. The low control only add DPBS without antibody. Incubate the plates at room temperature for 20 minutes and protect from light. After 20 minutes, wash the samples by DPBS for twice. Then centrifuge and discard the supernatant. Resuspend cells by 300 uL DPBS and transfer the samples to 5 mL Polystryrene Round-Bottom Tube (Falcon, #352054), then tested by BD FACSCanto. […].
Set the PD-L1 signal of vehicle control as 100%, PD-L1 signal of Low control as 0%. Then calculate the compound treated samples' PD-L1 signal
0% PD-L1 signal: Low control which stained without anti-CD274
100% PD-L1 Signal: vehicle control which stained with anti-CD274
The % activation of PD-L1 Internalization=1−PD-L1 signal of compound.

[1] = target: extracellular domains of PD-L1 (Homo sapiens (Human), UniProt Q9NZQ7); test: PD-L1 dimerization (biochemical protein-protein interaction assay); conditions: PDL1-Eu and PDL1-A2, 25° C., 120 min
extracellular domains of PD-L1, sequence (Q9NZQ7 19-238): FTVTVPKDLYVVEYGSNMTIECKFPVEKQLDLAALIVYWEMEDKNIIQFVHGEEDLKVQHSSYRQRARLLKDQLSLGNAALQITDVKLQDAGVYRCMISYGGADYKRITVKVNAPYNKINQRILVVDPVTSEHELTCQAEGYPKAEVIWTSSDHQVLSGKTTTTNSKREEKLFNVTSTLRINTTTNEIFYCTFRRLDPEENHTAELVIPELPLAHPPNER
Protocol: Compounds were tested in biochemical protein-protein interaction assays to determine if they can specifically dimerize the extracellular domains of PD-L1. • (1) Dilute cpd 1:3 in succession in DMSO for each column for 10±0 pts (refer to dilution plate map) • (2) Transfer 0.2 μL cpds solution in each row to 384 assay plate using Echo, each column containing 2 replicates (refer to assay plate map). • (3) Add 20 μL prepared mixture include PDL1-Eu and PDL1-A2 solution to assay plate, centrifuge at 1000 rpm for 1 min. • (4) Incubate at 25° C. for 120 min. • (5) Read fluorescence signal on Envision 2104 plate reader. • (6) Read the Ratio (665 nm/615 nm) signal on Envision. • (7) Analyze the raw data using the equation (V. Data analysis)

[2] = tested on: Hep3B-OS8-hPDL1 cells and CD3+ T cells; test: Hep3B-OS8-hPDL1 and T cells co-culture assay (IFN-γ by ELISA); type: cell-based; conditions: Homo sapiens, T-cell, 72 hours, read-out: Tumor and T Cell EC50 (nm)
Protocol: a. Hep3B-OS8-hPDL1 and T Cells Co-Culture Assay
• 1. Hep3B-OS8-hPDL1 cells were cultured in 1640 medium supplemented with 10% fetal bovine serum, 1% penicillin and streptomycin, in which 100 μg/mL G418 and Hygromycin B were also added. • 2. Hep3B-OS8-hPDL1 cells were harvested and treated with 10 μg/mL mitomycin C at 37° C. for 1.5 h, and the cells were then washed thoroughly with PBS for four times. • 3. Cells were re-suspended with RPMI 1640 medium containing 10% FBS and the cell density was adjusted to 5E5 cells/mL. • 4. Cells were seeded into 96-well flat bottom plate (2.5E4 cells/50 μL/well). b. CD3+ T Cells Isolation (30 mL Blood) • 5. The human blood sample from an individual donor is diluted by the same volume of sterile PBS, for instance add 25 mL sterile PBS into 25 mL fresh whole blood and mix sufficiently by gentle shake. • 6. Transfer 15 mL Lymphoprep medium into a new 50 mL centrifuge tube. • 7. Add the diluted blood sample as soft as possible onto the surface of the Ficoll medium to make sure there is a clear dividing line between the two liquids, and the volume ratio between Ficoll and diluted blood (30 mL) is 1:2. • 8. Move the tube gently to centrifuge, at 1000×g, 25 min, 20° C., with the acceleration (5) and Min deceleration (0) settings during the centrifugation. • 9. Four interfaces in all could be observed after the centrifugation, which are layers of plasma, mononuclear cells, the Ficoll medium and RBCs from top to bottom, and move the tube as gently as possible so as keep the four interfaces separated. Absorb and transfer the second layer of mononuclear cells into another new sterile centrifuge tube carefully, and absorb certain volume of plasma instead of the Ficoll medium if inevitable. • 10. Add sterile PBS of the three times the volume of PBMCs in the tube with PBMC. • 11. Wash the cells twice with 5-10 mL PBS before cell counting with cytometer. Centrifuge at 350×g, 10 min, 20° C. With the acceleration (5) and deceleration (5) settings during the centrifugation. • 12. Resuspend the cells with recommended medium and adjust the density of the PBMCs to the final concentration of 5E7 cells/mL. • 13. Isolate CD3+ T cells with EasySep™ Human T Cell Isolation Kit (STEMCELL Technologies #17951), and the cells were seeded into 96-well flat bottom plate (5E4 cells/100 μL/well). c. Compounds solutions preparation • 14. Prepare the Compounds dilutions in RPMI 1640 medium with 10% FBS according to the Layout. 15. Add compounds into each well in a volume of 50 μL. {3 compounds (GLC01-258, GLC01-269, GLC01-465) in 7 concentrations (0.03, 0.1, 0.3, 1, 3, 10 and 30 μM) and 6 compounds (GLC01-411, GLC01-292, GLC01-445, GLC01-475, GLC01-470 and GLC01-468) in the same concentration (1 μM)}. • 16. […]

PD-1/PD-L1, sequence (Q9NZQ7 19-238): as above

| Compound | IC50 (PD-1/PD-L1) [nM] | Internalization (PD-L1/CHO-K1 cells) [%] | EC50 [1] [nM] | EC50 [2] [nM] |
| --- | --- | --- | --- | --- |
| O=C(O)[C@H](CO)NCCN1C(=O)COc2cc(-c3cccc(-c4cccc(-c5cc6c(cc5F)N(CCN[C@@H](CO)C(=O)O)C(=O)CO6)c4Cl)c3Cl)c(F)cc21 [Compound 554, (2S,2'S)-2,2′-((((2,2′-dichloro-[1,1′-biphenyl]-3,3′-diyl)bis(6-fluoro-3-oxo-2,3-dihydro-4H-benzo[b][1,4]oxazine-7,4-diyl))bis(ethane-2,1-diyl))bis(azanediyl))bis(3-hydroxypropanoic acid)] | 5.51 | 23.20 | 55.8 | 5.1 |
| O=C(O)[C@H](CO)NCCN1C(=O)COc2cc(-c3cccc(-c4cccc(-c5ccc6c(c5)OCC(=O)N6C[C@@H]5CCCN5)c4Cl)c3Cl)ccc21 [Compound 533] | 7.11 | 32.70 | 91 | 6.03 |

Reference: patent US20250340529A1, “Heterocyclic Compounds as Immunomodulators of PD-L1 Interactions” (Ascletis BioScience Co., Ltd, priority 2021, published 2025)
